Experiments:
recombinant Nm23-H1 = recombinant Nm23-H1 (Homo sapiens, UniProt P15531); experiment: NDPK assay with recombinant Nm23-H1; type: biochemical; parameters: NDPK activity: unit not given here; conditions: for NDPK activity: 5 ng recombinant Nm23-H1, 10 min room temperature, then 5 μM ADP 1 min, compound concentration not given
Procedure: NDPK assay was performed by incubating 5 ng of recombinant Nm23-H1 with each of test compounds (Examples 1 to 3) in NDPK assay buffer (20 mM HEPES, 3 mM MgCl2) at room temperature for 10 minutes, followed by reaction with 5 μM ADP for 1 minute.

MDA-MB-231 cells [1] = experiment: Matrigel invasion assay; type: cell-based; conditions: Transwell with Matrigel, 24 hours at 37° C.
Procedure: Invasion assay was performed using a Transwell® unit (Corning, USA) with a polycarbonate membrane (pore size: 8 μm), with or without Matrigel coating. The membrane was coated with 50 μg Matrigel™-based membrane matrix (BD Bioscience, USA). 5×10^4 MDA-MB-231 cells were seeded into the upper chamber in a serum-free medium together with the compound of Example 1, and the lower chamber was filled with a medium containing 10% FBS. After incubation for 24 hours at 37° C., the cells on the upper side of the membrane were removed. The cells invading to the underside of the membrane were stained with 0.5% Crystal violet in 25% methanol and counted at 100-fold magnification under a microscope.

MDA-MB-231 cells [2] = experiment: Immunofluorescent staining assay (F-actin localization); type: cell-based; conditions: Rhodamine-Phalloidin staining, various times
Procedure: MDA-MB-231 cells were grown on the Secureslip™ (Sigma) cell culture glass cover slip to a confluence of 50 to 70%, and then treated with or without the compound of Example 1 (B038) for various times. The cells were gently washed with cold HBSS, and then fixed with 4% paraformaldehyde-containing HBSS […] for 10 minutes at room temperature. After washing with HBSS, permeabilization with 0.1% Triton X-100 was performed for 10 minutes at room temperature. After washing twice with HBSS, the cells were blocked with 3% BSA, 0.2% Tween20 and 0.2% gelatin in HBSS for 1 hour at room temperature, and incubated with primary antibody at 37° C. for 2 hours. F-actin was stained by Rhodamine-Phalloidin (Thermo Fisher Scientific) for 2 hours at 37° C., followed by washing 3 times with HBSS for 20 minutes. Coverslips were mounted with an anti-fading solution and viewed using an ×63 objective lens of an LSM510 META (Zeiss) laser scanning confocal microscope.

Sequence of recombinant Nm23-H1 (P15531 whole entry): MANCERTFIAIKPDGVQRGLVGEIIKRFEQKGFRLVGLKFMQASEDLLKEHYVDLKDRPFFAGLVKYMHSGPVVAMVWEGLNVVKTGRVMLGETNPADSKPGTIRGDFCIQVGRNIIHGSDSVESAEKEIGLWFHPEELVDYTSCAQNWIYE

| NDPK activity (recombinant Nm23-H1) | Compound | other results |
| --- | --- | --- |
| 6.55 | COc1ccc(CCc2ccccc2-c2ccc(OC)c(OC)c2)cc1OC [Example 1] | NDPK activity-increasing effect at various concentrations (FIG. 1) (recombinant Nm23-H1; various concentrations): excellent effect of increasing NDPK activity even at low concentrations; cell invasion (counting invaded cells, FIGS. 2A and 2B) (MDA-MB-231 cells [1]): significantly suppressed cell invasion; localization of F-actin (ruffles, cell-to-cell contact; FIG. 3) (MDA-MB-231 cells [2]): ruffles decreased and cell-to-cell contact increased |
| 4.08 | COc1ccc(-c2ccccc2C2OC2c2ccc(OC)c(OC)c2)cc1OC (centres unmarked) [Example 2, 2-(3′,4′-dimethoxy-[1,1′-biphenyl]-2-yl)-3-(3,4-dimethoxyphenyl)oxirane] | – |
| 1.32 | COc1ccc(NC(=O)c2ccccc2-c2ccc(OC)c(OC)c2)cc1OC [Example 3, N-(3,4-dimethoxyphenyl)-3′,4′-dimethoxy-[1,1′-biphenyl]-2-carboxamide] | – |
| 1.52 | COc1ccc(C(=O)Nc2ccccc2-c2ccc(OC)c(OC)c2)cc1OC [Example 4, N-(3′,4′-dimethoxy-[1,1′-biphenyl]-2-yl)-3,4-dimethoxybenzamide] | – |

The next lines start with the compound.

| Compound | NDPK activity (recombinant Nm23-H1) | other results |
| --- | --- | --- |
| COc1cc(-c2ccccc2CCc2ccc(OC)c(OC)c2)ccc1O [Example 5, 2′-(3,4-dimethoxyphenethyl)-3-methoxy-[1,1′-biphenyl]-4-ol] | 4 | – |
| COc1ccc(-c2ccccc2CCc2ccc(OC)c(OC)c2)cc1O [Example 6, 2′-(3,4-dimethoxyphenethyl)-4-methoxy-[1,1′-biphenyl]-3-ol] | 1.9 | – |
| COc1ccc(CCc2ccccc2-c2ccc(OC)c(OC)c2)cc1O [Example 7, 5-(2-(3′,4′-dimethoxy-[1,1′-biphenyl]-2-yl)ethyl)-2-methoxyphenol] | 3.5 | – |
| COc1cc(CCc2ccccc2-c2ccc(OC)c(OC)c2)ccc1O [Example 10, 4-(2-(3′,4′-dimethoxy-[1,1′-biphenyl]-2-yl)ethyl)-2-methoxyphenol] | 2.6 | – |

Reference: US11939308B2, “Biphenyl derivative compound and use thereof” (EWHA UNIVERSITY—INDUSTRY COLLABORATION FOUNDATION, priority 2018, dated 2024)
